Data reported in BindingDB's records for doi:10.1021/jm960799i (Dupont Pharmaceuticals, 1997).
pIC50: −log10 of the molar value. “And” between values parts separate entries of the source, which are not always exact repeats. Equal values may be shown once. Where a name gives a salt, the structure may show the parent alone.

Biological target: Integrin alpha-IIb/beta-3 (Homo sapiens, UniProt P08514+P05106)
Assay: In vitro inhibition of ADP-induced platelet aggregation in human platelet rich plasma (hPRP)

Sequence of Integrin alpha-IIb/beta-3 (P05106 27-788 limits assumed): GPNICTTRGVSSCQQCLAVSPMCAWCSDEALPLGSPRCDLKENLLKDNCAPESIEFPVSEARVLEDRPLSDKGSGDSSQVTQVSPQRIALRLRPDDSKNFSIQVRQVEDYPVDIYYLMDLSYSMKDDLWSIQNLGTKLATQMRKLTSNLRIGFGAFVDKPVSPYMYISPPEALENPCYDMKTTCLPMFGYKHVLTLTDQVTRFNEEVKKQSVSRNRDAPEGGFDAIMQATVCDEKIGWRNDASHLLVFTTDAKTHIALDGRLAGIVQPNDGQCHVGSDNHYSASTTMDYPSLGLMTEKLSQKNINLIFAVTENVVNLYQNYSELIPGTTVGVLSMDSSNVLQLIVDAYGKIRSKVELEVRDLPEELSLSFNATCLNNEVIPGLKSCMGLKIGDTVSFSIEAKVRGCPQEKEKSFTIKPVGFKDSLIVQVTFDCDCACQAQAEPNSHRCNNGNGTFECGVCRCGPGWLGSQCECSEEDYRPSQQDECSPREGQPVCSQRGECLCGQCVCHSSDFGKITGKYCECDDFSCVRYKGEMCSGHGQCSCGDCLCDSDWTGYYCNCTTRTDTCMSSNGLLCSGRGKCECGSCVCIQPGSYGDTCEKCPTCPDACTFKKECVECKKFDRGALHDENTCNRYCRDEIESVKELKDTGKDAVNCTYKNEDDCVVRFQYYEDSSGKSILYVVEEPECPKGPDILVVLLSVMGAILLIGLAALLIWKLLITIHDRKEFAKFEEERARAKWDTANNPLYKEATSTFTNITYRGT
Sequence of Integrin alpha-IIb/beta-3 (P08514 32-887 limits assumed): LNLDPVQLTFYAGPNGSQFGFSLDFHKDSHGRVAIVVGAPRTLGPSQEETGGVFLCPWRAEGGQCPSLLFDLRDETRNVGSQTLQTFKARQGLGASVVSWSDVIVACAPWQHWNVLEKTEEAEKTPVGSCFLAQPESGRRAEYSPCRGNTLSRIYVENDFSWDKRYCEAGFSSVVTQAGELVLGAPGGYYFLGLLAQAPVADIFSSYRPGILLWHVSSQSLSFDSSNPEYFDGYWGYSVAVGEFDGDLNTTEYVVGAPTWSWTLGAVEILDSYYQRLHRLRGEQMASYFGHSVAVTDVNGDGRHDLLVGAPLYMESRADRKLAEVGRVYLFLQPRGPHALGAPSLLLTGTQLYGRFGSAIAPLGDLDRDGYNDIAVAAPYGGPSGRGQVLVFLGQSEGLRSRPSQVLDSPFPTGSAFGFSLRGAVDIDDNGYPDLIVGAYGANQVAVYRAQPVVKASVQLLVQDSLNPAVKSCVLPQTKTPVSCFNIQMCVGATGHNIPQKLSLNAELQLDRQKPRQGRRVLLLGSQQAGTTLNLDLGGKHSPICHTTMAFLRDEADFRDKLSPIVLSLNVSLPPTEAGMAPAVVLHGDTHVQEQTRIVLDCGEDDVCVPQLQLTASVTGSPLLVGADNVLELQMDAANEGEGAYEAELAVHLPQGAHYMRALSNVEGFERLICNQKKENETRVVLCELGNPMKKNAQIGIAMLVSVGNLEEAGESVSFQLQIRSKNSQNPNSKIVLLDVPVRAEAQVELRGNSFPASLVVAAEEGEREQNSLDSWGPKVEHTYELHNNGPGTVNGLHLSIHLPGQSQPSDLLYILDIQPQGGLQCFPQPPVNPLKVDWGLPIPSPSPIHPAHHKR
Sequence of Integrin alpha-IIb/beta-3 (P08514 891-1039 limits assumed): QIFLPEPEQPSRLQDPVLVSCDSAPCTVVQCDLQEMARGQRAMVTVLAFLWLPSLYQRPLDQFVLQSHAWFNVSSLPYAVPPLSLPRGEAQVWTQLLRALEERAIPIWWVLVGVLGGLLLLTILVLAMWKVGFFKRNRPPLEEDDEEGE

In order of rising pIC50:
1. CCCCOC(=O)N[C@@H](CNC(=O)CC1CC(CC2CCNCC2)=NO1)C(=O)O (stereo partly drawn) [(S)-2-Butoxycarbonylamino-3-[2-(3-piperidin-4-ylmethyl-4,5-dihydro-isoxazol-5-yl)-acetylamino]-propionic acid; TFA]  5.00
2. COC(=O)C[C@H](CN(C)C)NC(=O)CC1CC(c2ccc(C(=N)N)cc2)=NO1 (stereo partly drawn) [(R)-3-{2-[3-(4-Carbamimidoyl-phenyl)-4,5-dihydro-isoxazol-5-yl]-acetylamino}-4-dimethylamino-butyric acid methyl ester; TFA]  5.15
3. CCCCOC(=O)N[C@@H](CNC(=O)CC1CC(C2CCNCC2)=NO1)C(=O)O (stereo partly drawn) [(S)-2-Butoxycarbonylamino-3-[2-(3-piperidin-4-yl-4,5-dihydro-isoxazol-5-yl)-acetylamino]-propionic acid; TFA]  5.20
4. COC(=O)C[C@H](CN1CCCC1)NC(=O)CC1CC(c2ccc(C(=N)N)cc2)=NO1 (stereo partly drawn) [(R)-3-{2-[3-(4-Carbamimidoyl-phenyl)-4,5-dihydro-isoxazol-5-yl]-acetylamino}-4-pyrrolidin-1-yl-butyric acid methyl ester; TFA]  5.48
5. COC(=O)CC(CN(C)C)NC(=O)CC1CC(c2ccc(C(=N)N)cc2)=NO1 (stereo not given) [3-{2-[3-(4-Carbamimidoyl-phenyl)-4,5-dihydro-isoxazol-5-yl]-acetylamino}-4-dimethylamino-butyric acid methyl ester; TFA]  5.57
6. CN(C[C@@H](C(=O)O)N(C)C(=O)OCc1ccccc1)C(=O)CC1CC(c2ccc(C(=N)N)cc2)=NO1 (stereo partly drawn) [(S)-2-(Benzyloxycarbonyl-methyl-amino)-3-({2-[3-(4-carbamimidoyl-phenyl)-4,5-dihydro-isoxazol-5-yl]-acetyl}-methyl-amino)-propionic acid; TFA]  6.24
7. N=C(N)c1ccc(C2=NOC(CC(=O)N[C@H](CCc3ccncc3)CC(=O)O)C2)cc1 (stereo partly drawn) [(R)-3-{2-[3-(4-Carbamimidoyl-phenyl)-4,5-dihydro-isoxazol-5-yl]-acetylamino}-5-pyridin-4-yl-pentanoic acid; TFA]  6.30
8. N=C(N)c1ccc(C2=NOC(CC(=O)N[C@H](CCc3cccnc3)CC(=O)O)C2)cc1 (stereo partly drawn) [(R)-3-{2-[3-(4-Carbamimidoyl-phenyl)-4,5-dihydro-isoxazol-5-yl]-acetylamino}-5-pyridin-3-yl-pentanoic acid; TFA]  6.44
9. N=C(N)c1ccc(C2=NOC(CC(=O)NC(CC(=O)O)CC(=O)O)C2)cc1 (stereo not given) [3-{2-[3-(4-Carbamimidoyl-phenyl)-4,5-dihydro-isoxazol-5-yl]-acetylamino}-pentanedioic acid; TFA]  6.68
10. O=C(CC1CC(CCC2CCNCC2)=NO1)NC[C@H](NC(=O)OCc1ccccc1)C(=O)O (stereo partly drawn) [(S)-2-Benzyloxycarbonylamino-3-{2-[3-(2-piperidin-4-yl-ethyl)-4,5-dihydro-isoxazol-5-yl]-acetylamino}-propionic acid; TFA]  6.68
11. CCCCOC(=O)N[C@@H](CN(C)C(=O)CC1CC(c2ccc(C(=N)N)cc2)=NO1)C(=O)O (stereo partly drawn) [(S)-2-Butoxycarbonylamino-3-({2-[3-(4-carbamimidoyl-phenyl)-4,5-dihydro-isoxazol-5-yl]-acetyl}-methyl-amino)-propionic acid; TFA]  6.70
12. N=C(N)c1ccc(C2=NOC(CC(=O)N[C@H](CCc3ccccn3)CC(=O)O)C2)cc1 (stereo partly drawn) [(R)-3-{2-[3-(4-Carbamimidoyl-phenyl)-4,5-dihydro-isoxazol-5-yl]-acetylamino}-5-pyridin-2-yl-pentanoic acid; TFA]  6.74
13. CCCCOC(=O)N[C@@H](CNC(=O)CC1CC(CCC2CCNCC2)=NO1)C(=O)O (stereo partly drawn) [(S)-2-Butoxycarbonylamino-3-{2-[3-(2-piperidin-4-yl-ethyl)-4,5-dihydro-isoxazol-5-yl]-acetylamino}-propionic acid; TFA]  6.74
14. CCCCOC(=O)N[C@@H](CNC(=O)CC1CC(CCCC2CCNCC2)=NO1)C(=O)O (stereo partly drawn) [(S)-2-Butoxycarbonylamino-3-{2-[3-(3-piperidin-4-yl-propyl)-4,5-dihydro-isoxazol-5-yl]-acetylamino}-propionic acid; TFA]  6.74
15. N=C(N)c1ccc(C2=NOC(CC(=O)N[C@@H](CC(=O)O)C(=O)N3CCc4ccccc4C3)C2)cc1 (stereo not given in full)  6.77
16. COC(=O)[C@H](CN(C)C(=O)CC1CC(c2ccc(C(=N)N)cc2)=NO1)NC(=O)OCc1ccccc1 (stereo partly drawn) [(S)-2-Benzyloxycarbonylamino-3-({2-[3-(4-carbamimidoyl-phenyl)-4,5-dihydro-isoxazol-5-yl]-acetyl}-methyl-amino)-propionic acid methyl ester; TFA]  6.80
17. CCCCOC(=O)N[C@H](CNC(=O)C[C@@H]1CC(c2ccc(C(=N)N)cc2)=NO1)C(=O)O [(R)-2-Butoxycarbonylamino-3-{2-[(S)-3-(4-carbamimidoyl-phenyl)-4,5-dihydro-isoxazol-5-yl]-acetylamino}-propionic acid; hydrochloride]  7.00
18. N=C(N)c1ccc(C2=NOC(CC(=O)NC[C@H](N)C(=O)O)C2)cc1 (stereo partly drawn) [(S)-2-Amino-3-{2-[3-(4-carbamimidoyl-phenyl)-4,5-dihydro-isoxazol-5-yl]-acetylamino}-propionic acid; TFA]  7.04
19. CCCCOC(=O)N[C@@H](CNC(=O)CC1CC(c2ccc(N=C(N)N)cc2)=NO1)C(=O)O (stereo partly drawn) [(S)-2-Butoxycarbonylamino-3-{2-[3-(4-guanidino-phenyl)-4,5-dihydro-isoxazol-5-yl]-acetylamino}-propionic acid]  7.06
20. N=C(N)c1ccc(C2=NOC(CC(=O)N[C@@H](CC(=O)O)Cc3ccccc3)C2)cc1 (stereo partly drawn) [(R)-3-{2-[3-(4-Carbamimidoyl-phenyl)-4,5-dihydro-isoxazol-5-yl]-acetylamino}-4-phenyl-butyric acid; TFA]  7.11
21. CCCCOC(=O)N[C@@H](CNC(=O)CC1CC(c2ccc(C(=N)N)cc2F)=NO1)C(=O)O (stereo partly drawn) [(S)-2-Butoxycarbonylamino-3-{2-[3-(4-carbamimidoyl-2-fluoro-phenyl)-4,5-dihydro-isoxazol-5-yl]-acetylamino}-propionic acid]  7.14
22. N=C(N)c1ccc(C2=NOC(CC(=O)NC[C@H](NC(=O)NCc3ccccc3)C(=O)O)C2)cc1 (stereo partly drawn) [(S)-2-(3-Benzyl-ureido)-3-{2-[3-(4-carbamimidoyl-phenyl)-4,5-dihydro-isoxazol-5-yl]-acetylamino}-propionic acid; TFA]  7.17
23. N=C(N)c1ccc(C2=NOC(CC(=O)NC[C@H](NC(=O)c3ccc(-c4ccccc4)cc3)C(=O)O)C2)cc1 (stereo partly drawn) [(S)-2-[(Biphenyl-4-carbonyl)-amino]-3-{2-[3-(4-carbamimidoyl-phenyl)-4,5-dihydro-isoxazol-5-yl]-acetylamino}-propionic acid; TFA]  7.17
24. N=C(N)c1ccc(C2=NO[C@@H](CC(=O)NCCC(=O)O)C2)cc1  7.22
25. CC[C@H](CC(=O)O)NC(=O)C[C@H]1CC(c2ccc(C(=N)N)cc2)=NO1 [(R)-3-{2-[(R)-3-(4-Carbamimidoyl-phenyl)-4,5-dihydro-isoxazol-5-yl]-acetylamino}-pentanoic acid; TFA]  7.27
26. COC(=O)C[C@@H](CC(C)C)NC(=O)CC1CC(c2ccc(C(=N)N)cc2)=NO1 (stereo partly drawn) [(R)-3-{2-[3-(4-Carbamimidoyl-phenyl)-4,5-dihydro-isoxazol-5-yl]-acetylamino}-5-methyl-hexanoic acid methyl ester; TFA]  7.30
27. N=C(N)c1ccc(C2=NOC(CC(=O)NC[C@H](NC(=O)OCc3ccc(Br)cc3)C(=O)O)C2)cc1 (stereo partly drawn) [(S)-2-(4-Bromo-benzyloxycarbonylamino)-3-{2-[3-(4-carbamimidoyl-phenyl)-4,5-dihydro-isoxazol-5-yl]-acetylamino}-propionic acid; TFA]  7.36
28. C=CCCOC(=O)N[C@@H](CNC(=O)CC1CC(c2ccc(C(=N)N)cc2)=NO1)C(=O)O (stereo partly drawn) [(S)-2-But-3-enyloxycarbonylamino-3-{2-[3-(4-carbamimidoyl-phenyl)-4,5-dihydro-isoxazol-5-yl]-acetylamino}-propionic acid; TFA]  7.36
29. N=C(N)c1ccc(C2=NOC(CC(=O)NC[C@H](NC(=O)OCCC3CC3)C(=O)O)C2)cc1 (stereo partly drawn) [(S)-3-{2-[3-(4-Carbamimidoyl-phenyl)-4,5-dihydro-isoxazol-5-yl]-acetylamino}-2-(2-cyclopropyl-ethoxycarbonylamino)-propionic acid; TFA]  7.44
30. N=C(N)c1ccc(C2=NOC(CC(=O)NC[C@H](NC(=O)OCc3ccccc3Cl)C(=O)O)C2)cc1 (stereo partly drawn) [(S)-3-{2-[3-(4-Carbamimidoyl-phenyl)-4,5-dihydro-isoxazol-5-yl]-acetylamino}-2-(2-chloro-benzyloxycarbonylamino)-propionic acid; TFA]  7.49
31. N=C(N)c1ccc(C2=NOC(CC(=O)NC[C@H](NC(=O)OCCC3CCCC3)C(=O)O)C2)cc1 (stereo partly drawn) [(S)-3-{2-[3-(4-Carbamimidoyl-phenyl)-4,5-dihydro-isoxazol-5-yl]-acetylamino}-2-(2-cyclopentyl-ethoxycarbonylamino)-propionic acid; TFA]  7.49
32. CCCCS(=O)(=O)N[C@@H](CNC(=O)CC1CC(c2ccc(C(=N)N)cc2)=NO1)C(=O)O (stereo partly drawn) [(S)-2-(Butane-1-sulfonylamino)-3-{2-[3-(4-carbamimidoyl-phenyl)-4,5-dihydro-isoxazol-5-yl]-acetylamino}-propionic acid; TFA]  7.51
33. CCCCOC(=O)N[C@@H](CNC(=O)CC1CC(c2ccc(C(=N)N)cc2)=NO1)C(=O)OC (stereo partly drawn) [(S)-2-Butoxycarbonylamino-3-{2-[3-(4-carbamimidoyl-phenyl)-4,5-dihydro-isoxazol-5-yl]-acetylamino}-propionic acid methyl ester; hydrochloride]  7.52
34. CCCCOC(=O)N[C@H](CNC(=O)C[C@H]1CC(c2ccc(C(=N)N)cc2)=NO1)C(=O)O [(R)-2-Butoxycarbonylamino-3-{2-[(R)-3-(4-carbamimidoyl-phenyl)-4,5-dihydro-isoxazol-5-yl]-acetylamino}-propionic acid; hydrochloride]  7.57

For `CCCCOC(=O)N[C@@H](CNC(=O)CC1CC(c2ccc(C(=N)N)cc2)=NO1)C(=O)O` (stereo partly drawn) [(S)-2-Butoxycarbonylamino-3-{2-[3-(4-carbamimidoyl-phenyl)-4,5-dihydro-isoxazol-5-yl]-acetylamino}-propionic acid; TFA], the pIC50 was 7.12 and 7.38.
